Values quoted from earlier work in patent publication US10952975B2, “Compositions and methods for treatment of cancer” (priority 2019, dated 2021).
Where two headings read alike, the source gives them in different places. One block for each compound: values may come before it.

Experiments:
[1] = patients with advanced solid tumors
[2] = tested on: murine tumors
[3] = tested on: LS174T cells; conditions: 36 h, 10 μM FIDAS-3
[4] = biological target: T1, MAT2A (Homo sapiens, UniProt P31153); conditions: in vitro
T1 sequence (P31153 whole entry): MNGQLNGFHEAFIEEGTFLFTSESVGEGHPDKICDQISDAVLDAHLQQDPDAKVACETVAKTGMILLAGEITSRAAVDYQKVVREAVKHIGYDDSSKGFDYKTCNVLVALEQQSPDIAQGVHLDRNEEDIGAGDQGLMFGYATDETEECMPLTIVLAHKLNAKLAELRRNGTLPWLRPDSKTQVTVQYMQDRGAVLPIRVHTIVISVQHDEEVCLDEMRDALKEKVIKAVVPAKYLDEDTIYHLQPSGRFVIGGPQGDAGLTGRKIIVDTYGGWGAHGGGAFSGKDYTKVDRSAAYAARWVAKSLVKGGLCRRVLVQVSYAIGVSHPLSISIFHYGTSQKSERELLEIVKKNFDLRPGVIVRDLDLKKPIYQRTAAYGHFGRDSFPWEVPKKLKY

[5] = biological target: T1, MAT2A; conditions: cell-free; [L-Met]=[ATP]=1 mM, [MAT2A]=10 μg/mL; 20 min preincubation, 30 min reaction; read-out: IC50, MAT2A-catalyzed SAM synthesis
[6] = clinical studies

SMILES: COc1cc(/C=C\c2ccc(OC)c(OP(=O)(O)O)c2OP(=O)(O)O)cc(OC)c1OC [Oxi4503, Tetrasodium Combretastatin A-1 2′,3′-O-diphosphate]
dose at which a tumor response was seen [1]: 14 mg/m^2
doses with maximum tumor perfusion reductions [1]: ≥ 11 mg/m^2
maximum tolerated dose ([1]; escalation to 14 mg/m^2 was possible): 8.5 mg/m^2

SMILES: Cc1ccc2c(=O)c3cccc(CC(=O)O)c3oc2c1C [DMXAA, 5,6-dimethylxanthenone-4-acetic acid]
time to arrest of tumor blood flow after administration [2]: ≤ 30 min

competition against SAM for MAT2A binding [4]: effectively competes against SAM
IC50 [5]: 4.9 µM
SMILES: CN(C)c1ccc(/C=C/c2c(F)cccc2F)cc1 [FIDAS-3]
decrease of SAH level [3]: 56%
decrease of SAM level [3]: 64%

SMILES: COc1ccc(/C=C\c2cc(OC)c(OC)c(OC)c2)cc1OP(=O)([O-])[O-].[Na+].[Na+] [CA-4P, Disodium CA-4-3-O-phosphate]
maximum tolerated dose [6]: 60-68 mg/m^2
